{"source": "paper PMC3715890", "about": "“A Cyclic Peptide Inhibitor of HIF-1 Heterodimerization That Inhibits Hypoxia Signaling in Cancer Cells” (Journal of the American Chemical Society, 2013)", "key": {"[1]": {"system": "U2OS-luc control cell line stably expressing luciferase", "experiment": "Control constitutive luciferase reporter, U2OS-luc", "format": "cell-based, human", "text": "Figure S3: Identification of cyclic peptide HIF-1 inhibitors. (A) SICLOPPS expression is induced by arabinose, which processes to give a member of the cyclic peptide library. A dimerization inhibitor would be expected to rescue growth of the HIF-1 RTHS on selective media plates containing IPTG, kanamycin and 3-amino-triazole, and arabinose. (B) The ability of the selected cyclic peptides to […]\nHIF-1 RTHS containing the corresponding SICLOPPS plasmid onto selective media. In the absence of arabinose the SICLOPPS split-intein is not produced; the HIF-1 RTHS containing plasmids encoding […]\ncolonies show survival on selective media plates containing IPTG and arabinose (panel 2). Expressing the 3 selected cyclic peptides from mutant SICLOPPS inteins (H24A, F26A mutations in the C- […]\ncyclic form of the peptides and their activity. […]\nexpressing a constitutive luciferase reporter construct. […]"}, "[2]": {"system": "HIF-2 (HIF-dependent luciferase reporter, MCF-7 cells)", "experiment": "HIF-2 luciferase reporter assay, MCF-7", "format": "cell-based", "details": "MCF-7, transfected HIF-2α", "text": "(§1) In addition, P1 had no effect on VEGF protein levels in hypoxic 786-O cells (Figure 6B). To further probe the effect of P1 on HIF-2, a luciferase reporter assay was developed and used. The assay was derived from the HIF-1 luciferase reporter assay detailed above (Figure 2C and D) and adapted for HIF-2 by replacing the plasmid encoding HIF-1α with the equivalent plasmid encoding HIF-2α. […] P2 and P3 also had no effect on HIF-2 in this assay (Figure S9).\n(§2) Endogenous HIF-1 luciferase reporter assays were conducted as previously reported in U2OS-HRE-luc[15] and MCF-7 cells.[46] For plasmid-expressed HIF-α luciferase reporter assays, MCF-7 and U2OS cells were transiently transfected with plasmids expressing HIF-1α, HIF-2α, or a blank control (pcDNA3.1-HIF-1α, pcDNA3.1-HIF-2α, or pcDNA3.1), a renilla-encoding control (phRL-TK), and a HIF-dependent firefly luciferase reporter construct (pGL2-TK-HRE), using Transfast (Promega) according to the manufacturer’s instructions. After 24 h, cells were recovered and plated (4000 cells/well) in 96-well plates (Perkin-Elmer) and incubated for 5 h before either hypoxic or aerobic incubation in presence or absence of cyclic peptide inhibitors. Firefly and renilla activities were determined using Dual-Glo Reagent (Promega) according to the manufacturer’s instructions. The luciferase signal was normalized using the corresponding renilla values."}, "[3]": {"system": "VEGF mRNA in hypoxic U2OS cells", "experiment": "VEGF mRNA qPCR, U2OS", "format": "cell-based, human", "details": "hypoxia 16 h, 100 μM", "method": "(§3) Cells were treated with the stated concentrations of inhibitor (P1, P2, or P3) and incubated in normoxia for 4 h, followed by incubation in a hypoxic environment. All manipulation of cell pellets (e.g., lysis, mRNA, and protein extraction) was conducted in a hypoxic environment.\n(§4) Total RNA was extracted from MCF-7 and U2OS cells using RNeasy Mini Kit (74104, QIAGEN) and quantified using a Nanodrop ND-1000 spectrophotometer. Complementary DNA was synthesized in a 20 μL reaction containing 1 μg of total RNA, using qScript cDNA SuperMix (95048-100, Quanta Biosciences) according to the manufacturer’s instructions. Quantitative real-time PCRs were performed using Universal Taqman PCR master mix (Applied Biosystems) >and the Taqman gene expression assay of interest (Applied Biosystems) on an ABI StepOnePlus Real-Time PCR system (Applied Biosystems). Expression assays used in this study were HIF-1α (00936376_m1), VEGF-A (Hs00173626_m1), CAIX (Hs00154208_m1), LOX (Hs00942480_m1), HIF2α (Hs01026149_m1), CITED2 (Hs01897804_s1), and 18S (Hs99999901_m1). All expression values were normalized using expression of 18S."}, "[4]": {"system": "HIF-2 (HIF-dependent luciferase reporter, U2OS cells)", "experiment": "HIF-2 luciferase reporter assay, U2OS", "format": "cell-based, human", "details": "transfected HIF-2α", "text": "as §1, §2"}, "[5]": {"system": "VEGF mRNA in hypoxic MCF-7 cells", "experiment": "VEGF mRNA qPCR, MCF-7", "format": "cell-based", "details": "MCF-7, hypoxia 16 h, 100 μM", "method": "as §3, §4"}, "[6]": {"system": "endogenous HIF-1α/HIF-1β interaction in MCF-7 cells", "experiment": "In situ proximity ligation assay (PLA), MCF-7", "format": "cell-based", "details": "100 μM, MCF-7, hypoxia (1% O2) 4 h", "text": "The effect of P1 on the endogenous HIF-1α/HIF-1β interaction in intact cells was directly probed using an in situ proximity ligation assay (PLA);[30] primary antibodies (HIF-1α and HIF-1β here) raised in different species are bound by specific secondary antibodies that are tagged with a short DNA strand. The DNA on the interacting PLA probes forms a mini-plasmid that is amplified and bound by a red fluorescent dye. The HIF-1α/HIF-1β interaction is thus visualized as red dots in the DAPI-stained nuclei of MCF-7 and U2OS cells (Figure 4). We observed an increase in PLA signal in MCF-7 cells incubated in hypoxia (1% O2) for 4 h, indicating the expected formation of the HIF-1 dimer in hypoxia (Figure 4, panel 1 versus panel 2). […] The observed effect is not due to a reduction in HIF-1α by P1 (Western blot inset in Figure 4) and thus may be solely attributed to disruption of HIF-1α/HIF-1β dimers.\nas §3\nDuolink proximity ligation assay was conducted using the in situ PLA Kit (O-Link Bioscience, Uppsala, Sweden) according to the manufacturer’s instructions. […]"}, "[7]": {"system": "tubule formation in hypoxic human umbilical vein endothelial cells (HUVEC)", "experiment": "HUVEC tubularization", "format": "cell-based", "details": "250 μM"}, "[8]": {"system": "HIF-1 (HIF-dependent luciferase reporter, U2OS-HRE-luc cells)", "experiment": "HIF-1-dependent luciferase reporter assay, U2OS-HRE-luc", "format": "cell-based, human", "details": "U2OS-HRE-luc", "method": "The ability of P1–P3 to disrupt HIF-1 function in cells was assessed using a HIF-1-dependent luciferase reporter assay.[15],[21] The assay uses human osteosarcoma U2OS cells, stably transfected with a HIF-dependent luciferase reporter construct (U2OS-HRE-luc), where activation of HIF results in an increase in luciferase expression.[15]\nas §2, §3"}}, "data": [{"substance": "Tat-cyclo-CRLMVL (head to tail) [P2, cyclo-CRLMVL tagged with Tat peptide via a disulfide bond; used as negative control]", "values": [{"measurement": "effect on constitutive luciferase signal", "setting": "[1]", "value": "do not affect"}, {"measurement": "effect on HIF-2 luciferase reporter signal", "setting": "[2]", "value": "do not affect"}, {"measurement": "VEGF mRNA", "setting": "[3]", "value": "had no effect"}, {"measurement": "effect on HIF-2 luciferase reporter signal", "setting": "[4]", "value": "do not affect"}, {"measurement": "VEGF mRNA", "setting": "[5]", "value": "had no effect"}, {"measurement": "HIF-1 PLA signal", "setting": "[6]", "value": "did not have any effect on the PLA signal"}, {"measurement": "HUVEC tubularization / tubule length", "setting": "[7]", "value": "has no effect"}, {"measurement": "effect on luciferase reporter in hypoxia", "setting": "[8]; hypoxia (1% O2)", "value": "did not show an effect"}, {"measurement": "effect on luciferase reporter in normoxia (basal)", "setting": "[8]; normoxia", "value": "did not show an effect"}]}]}
